Among the test systems are A498; CAKI-1; COLO 205; DU-145; HCT-116; IGROV-1; K562; KM12; LOX IMVI; MDA-MB-435; MDA-N; NCI-H23; NCI-H522; SF-268; SF-295; SK-MEL-28; SK-OV-3; SN12C; SR; T47D.
Common to all, as to test: NCI tumour cell line growth inhibition, 48 h

These results are taken from ChEMBL document CHEMBL1201862, “PubChem BioAssay data set” (2004).

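96-well plates; 48 h exposure; 5 concentrations. Endpoints by linear interpolation between flanking doses. Not reached: highest tested concentration assigned. GI50: concentration for 50% inhibition of growth.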 Calls of active or inactive are those of the source. No stated cut-off is given here; in the data, active = GI50 up to about 1.1 µM and inactive = higher.

For `COc1ccc(Cc2cc(OC)c(OC)c(OC)c2)cc1O`, the GI50 with A498 is 25.2 µM (inactive); in the assay on CAKI-1, > 24.7 µM (inactive); with COLO 205, > 40.2 µM (inactive); in the assay with DU-145 it was 0.0231 µM (active); in the assay on HCT-116, 0.064 µM (active); with IGROV-1, 3.78 µM (inactive). The GI50 was 0.0161 µM (active) in the assay on K562; 0.0193 µM (active) with KM12; 0.0547 µM (active) in the assay on LOX IMVI; < 0.01 µM (active) in the assay with MDA-MB-435; < 0.01 µM (active) with MDA-N; 0.101 µM (active) in the assay on NCI-H23. The GI50 in the assay with NCI-H522 was 0.12 µM (active); with SF-268, 0.122 µM (active); in the assay on SF-295, 0.286 µM (active); in the assay on SK-MEL-28 it was < 0.0169 µM (active); in the assay with SK-OV-3 it was 0.274 µM (active); in the assay on SN12C, 0.173 µM (active). The GI50 is 0.0194 µM (active) in the assay on SR and 53.8 µM (inactive) with T47D.

As for `CCOC(=O)c1oc2cc3c(c4c2c1-c1ccccc1N4C)C=CC(C)(C)O3`, the GI50 in the assay on A498 was 25.9 µM (inactive); in the assay on CAKI-1, 15.9 µM (inactive); in the assay with COLO 205, > 65.3 µM (inactive); with DU-145, 18.7 µM (inactive); with HCT-116, 14.2 µM (inactive); with IGROV-1, 15.8 µM (inactive). Besides, the GI50 is 6.71 µM (inactive) with K562; 16.3 µM (inactive) in the assay with KM12; 16.4 µM (inactive) in the assay with LOX IMVI; 52.1 µM (inactive) in the assay with MDA-MB-435; > 79.8 µM (inactive) with MDA-N; 22.2 µM (inactive) in the assay on NCI-H23. The GI50 with NCI-H522 was 8.71 µM (inactive); in the assay on SF-268 it was 13.5 µM (inactive); in the assay on SF-295, 8.81 µM (inactive); in the assay on SK-MEL-28, 23.5 µM (inactive); in the assay with SK-OV-3 it was 13.4 µM (inactive); with SN12C, 40.6 µM (inactive). Besides, the GI50 was 0.56 µM (active) with SR and 16.9 µM (inactive) in the assay on T47D.

`[N-]=[N+]=NC1C(O)C(CO)OC1n1ccc(=O)[nH]c1=O` (stereo not given): the GI50 in the assay on A498, in the assay with CAKI-1, with COLO 205, in the assay with DU-145, in the assay on HCT-116 and in the assay on IGROV-1 was > 875 µM (inactive) in each case. For the same compound, the GI50 in the assay on K562, in the assay on KM12, in the assay on LOX IMVI, in the assay on MDA-MB-435, with MDA-N and in the assay on NCI-H23 was > 875 µM (inactive) each time. For the same compound, the GI50 in the assay with NCI-H522, with SF-268, in the assay with SF-295, in the assay on SK-MEL-28, in the assay on SK-OV-3 and in the assay with SN12C was > 875 µM (inactive) throughout. Further, the GI50 with SR and in the assay on T47D was > 875 µM (inactive) throughout.

For the compound `CN(C)CCCOC(=O)C(c1ccccc1)C1(O)CCSCC1` (stereo not given), the GI50 with A498 is > 100 µM (inactive); in the assay on CAKI-1, 32.7 µM (inactive); in the assay on COLO 205, > 100 µM (inactive); with DU-145, > 100 µM (inactive); in the assay with HCT-116 it was > 100 µM (inactive); in the assay with IGROV-1, > 100 µM (inactive). Moreover, the GI50 is > 100 µM (inactive) with K562; 68.2 µM (inactive) in the assay with KM12; > 100 µM (inactive) in the assay with LOX IMVI; > 100 µM (inactive) with MDA-MB-435; > 100 µM (inactive) in the assay with MDA-N; > 100 µM (inactive) in the assay with NCI-H23. Moreover, the GI50 with NCI-H522, with SF-268, in the assay on SF-295, with SK-MEL-28, with SK-OV-3 and in the assay on SN12C was > 100 µM (inactive) in each case. Also, the GI50 in the assay on SR and in the assay on T47D was > 100 µM (inactive) in each case.

As to `C/C(=N\NC(=O)N/N=C(\C)c1ccccn1)c1ccccn1`, the GI50 is > 71.4 µM (inactive) with A498; 38.8 µM (inactive) in the assay on CAKI-1; 0.069 µM (active) in the assay on COLO 205; 43.5 µM (inactive) in the assay on DU-145; 0.336 µM (active) in the assay with HCT-116; 6.59 µM (inactive) with IGROV-1. Besides, the GI50 in the assay with K562 was 0.118 µM (active); in the assay with KM12, 0.139 µM (active); with LOX IMVI, 0.466 µM (active); in the assay with MDA-MB-435 it was 0.0526 µM (active); in the assay with MDA-N it was 0.114 µM (active); in the assay with NCI-H23 it was 0.15 µM (active). For the same compound, the GI50 in the assay with NCI-H522 was 67.1 µM (inactive); in the assay with SF-268, 4.18 µM (inactive); in the assay with SF-295, 0.308 µM (active); with SK-MEL-28 it was 1.92 µM (inactive); with SK-OV-3, > 100 µM (inactive); in the assay on SN12C it was 2.16 µM (inactive). Also, the GI50 was 0.394 µM (active) with SR and 35.2 µM (inactive) in the assay with T47D.

On to `CC(C)(C)c1ccc(O)c(CN(Cc2cc(C(C)(C)C)ccc2O)C2CCCCC2)c1`, for which the GI50 with A498 was 17.5 µM (inactive); with CAKI-1 it was 26.2 µM (inactive); in the assay with COLO 205 it was 2.2 µM (inactive); in the assay with DU-145, 19.5 µM (inactive); with HCT-116 it was 16.2 µM (inactive); with IGROV-1, 17.6 µM (inactive). For the same compound, the GI50 was 6.46 µM (inactive) in the assay with K562; 20.5 µM (inactive) in the assay with KM12; 10.7 µM (inactive) in the assay on LOX IMVI; 14.5 µM (inactive) in the assay with MDA-MB-435; 14.7 µM (inactive) in the assay on MDA-N; 20.4 µM (inactive) in the assay on NCI-H23. The GI50 in the assay on NCI-H522 is 15.8 µM (inactive); with SF-268 it was 15.7 µM (inactive); with SF-295, 17.7 µM (inactive); with SK-MEL-28 it was 14.5 µM (inactive); in the assay with SK-OV-3, 24.4 µM (inactive); in the assay with SN12C it was 16.4 µM (inactive). For the same compound, the values for the GI50 in the assay on SR and with T47D were 18.5 µM (inactive) and 16.4 µM (inactive), respectively.

As for `Nc1ncnc2nn(C3OC(CO)C(O)C3O)nc12` (stereo not given), the GI50 was 10.2 µM (inactive) in the assay on A498; 8.55 µM (inactive) in the assay with CAKI-1; 5.06 µM (inactive) in the assay on COLO 205; 5.26 µM (inactive) with DU-145; 7.87 µM (inactive) in the assay with HCT-116; 4.12 µM (inactive) in the assay with IGROV-1. Besides, the GI50 in the assay with K562 was 5.46 µM (inactive); in the assay on KM12 it was 10.1 µM (inactive); in the assay on LOX IMVI it was 6.32 µM (inactive); in the assay with MDA-MB-435 it was 9.1 µM (inactive); in the assay on MDA-N, 10.3 µM (inactive); in the assay on NCI-H23 it was 20.3 µM (inactive). The GI50 in the assay with NCI-H522 was 6.82 µM (inactive); in the assay on SF-268 it was 20.4 µM (inactive); in the assay with SF-295 it was 22 µM (inactive); with SK-MEL-28, 36.6 µM (inactive); with SK-OV-3, 2.67 µM (inactive); in the assay on SN12C, 8.02 µM (inactive). Besides, the GI50 in the assay with SR is 2.99 µM (inactive); in the assay on T47D, 4.21 µM (inactive).

Take `CNC(=O)CNC(=O)N(C[C@@H]1CCCN1C(=O)[C@H](CC(C)C)NC(=O)OC(C)(C)C)C(C)C`: the GI50 with A498, with CAKI-1, in the assay with COLO 205, in the assay on DU-145, in the assay with HCT-116 and with IGROV-1 was > 100 µM (inactive) in each case. Further, the GI50 in the assay with K562, in the assay with KM12, in the assay with LOX IMVI, in the assay on MDA-MB-435, in the assay with MDA-N and in the assay on NCI-H23 was > 100 µM (inactive) throughout. The GI50 in the assay with NCI-H522, with SF-268, in the assay with SF-295, in the assay on SK-MEL-28, with SK-OV-3 and in the assay with SN12C was > 100 µM (inactive) in each case. Besides, the GI50 with SR and in the assay on T47D was > 100 µM (inactive) each time.

For `COc1cc2c(c(OC)c1OC)-c1ccc(OC)c(=O)cc1C(NC(=O)COc1ccccc1)CC2` (stereo not given), the GI50 in the assay with A498, with CAKI-1, with COLO 205, in the assay on DU-145, in the assay with HCT-116 and with IGROV-1 was < 0.01 µM (active) in each case. Further, the GI50 with K562 is < 0.0208 µM (active); in the assay with KM12, < 0.01 µM (active); in the assay with LOX IMVI it was < 0.01 µM (active); in the assay with MDA-MB-435, < 0.01 µM (active); in the assay with MDA-N it was < 0.01 µM (active); in the assay with NCI-H23, < 0.01 µM (active). Further, the GI50 is < 0.01 µM (active) with NCI-H522; < 0.01 µM (active) with SF-268; < 0.01 µM (active) in the assay on SF-295; 0.0498 µM (active) in the assay on SK-MEL-28; 0.0282 µM (active) in the assay on SK-OV-3; < 0.01 µM (active) in the assay on SN12C. Further, the GI50 is < 0.01 µM (active) with SR and 39.9 µM (inactive) in the assay with T47D.

As for `COC(=O)[C@@]12C(=O)C=CC(=O)[C@@H]1C1C(=CC2COC(C)=O)O[C@@H]2OC3(CCCCC3)O[C@H]12` (stereo not given in full), the GI50 in the assay with A498 was 22.8 µM (inactive); with CAKI-1, 12.6 µM (inactive); with COLO 205, 5.77 µM (inactive); in the assay on DU-145, 18.3 µM (inactive); in the assay on HCT-116, 5.69 µM (inactive); in the assay with IGROV-1, 16 µM (inactive). Also, the GI50 in the assay on K562 is 4.15 µM (inactive); in the assay on KM12, 13 µM (inactive); in the assay on LOX IMVI, 9.95 µM (inactive); in the assay on MDA-MB-435 it was 16.2 µM (inactive); in the assay with MDA-N, 12.6 µM (inactive); with NCI-H23, 17.1 µM (inactive). The GI50 in the assay with NCI-H522 was 2.21 µM (inactive); in the assay on SF-268, 14.2 µM (inactive); in the assay with SF-295 it was 16.1 µM (inactive); in the assay with SK-MEL-28, 17.2 µM (inactive); with SK-OV-3 it was 16.1 µM (inactive); with SN12C it was 15.5 µM (inactive). In addition, the GI50 is 3.05 µM (inactive) in the assay on SR and 3.66 µM (inactive) in the assay with T47D.
